Measured values published in PMC12040169 (PLOS Biology, 2025).
“And” between values parts separate entries of the source, which are not always exact repeats. Equal values may be shown once.

Assays:
in vitro [1] = conditions: human, hela cells, % viability
HeLa = conditions: bulk resorufin, single well, 28.5 h, 10 µM, Bulk resorufin fluorescence
in vitro [2] = test: in vitro; parameters: Viability of infected HeLa host cells, resazurin conversion, bulk resorufin fluorescence relative to DMSO; conditions: human, hela cells; bulk resorufin, mean of 2
[3] = system: T1, CTL2-GFP (C. trachomatis L2/434/Bu, GFP-expressing); test: microbe, parasite or virus in culture; parameters: Intracellular C. trachomatis growth in HeLa cells, bulk GFP fluorescence relative to DMSO; conditions: Chlamydia trachomatis, HeLa, 28.5 h; bulk GFP, mean of 2; read-out: % of control remaining
T1 construct: L2/434/Bu, GFP-expressing
Description: MICs were calculated as described above.

[4] = system: T2, C. trachomatis L2/434/Bu expressing GFP (CTL2-GFP); test: microbe, parasite or virus in culture; parameters: C. trachomatis total inclusion area by high-content imaging, normalised to DMSO; conditions: Chlamydia trachomatis, HeLa, 28.5 h; total inclusion area; read-out: % of control remaining
T2 construct: L2/434/Bu GFP intracellular growth in HeLa cells
How it was run: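 First, bulk GFP and resorufin signals were measured in compound-treated infected cultures. Cells were next fixed and stained with Hoechst. Finally, high-content imaging quantified chlamydial inclusions (area, number) and host nuclei, and MICs were calculated.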

| SMILES | viability at 28.5 h, 10 µM (in vitro [1]) [%] | % viability (HeLa) | further results |
| --- | --- | --- | --- |
| Cc1ccc(CN2CCNC(=O)C2CC(=O)O)o1 (stereo not drawn) [CBK269966] | 91.8 | 91.7% | – |
| CC(C)(CC(=O)O)CC(=O)Nc1cccc(CCc2ccncc2)c1 [CBK286989] | 99.3 | 84.8% | – |
| COc1ccccc1CN1CC2CCCN2C[C@H]1C (stereo partly drawn) [CBK285409] | 90.6 | 106% | – |
| COc1cccc2sc(NC(=O)c3ccc4c(c3)OCCO4)nc12 [CBK149285] | 99.1 | 92.1% | – |
| O=C1CCCc2c1nc(-c1ccccc1Cl)n2O [CBK271948] | 89.5 | 82.2% | – |
| C[C@@H]1CN2CCCC2CN1Cc1cccc2cccnc12 (stereo partly drawn) [CBK284551] | 82.4 | 87.8% | – |
| CC[C@H](Cn1ncc2ccccc2c1=O)NC(=O)c1cccs1 [CBK284301] | 96.7 | 90.5% | – |
| c1cnc2c(c1)cc([C@@H]1CCCO1)n2CCN1CCCCC1 [CBK282273] | 101 | 109% | – |
| CCOC(=O)C1=C(C)NC(=O)NC1c1ccc(Cl)cc1Cl (stereo not drawn) [CBK072057] | 93.2 | 91% | – |
| C=CCNC(=O)[C@@H]1C=CCN1C(=O)c1ccccc1F [CBK283052] | 105 | 98.9% | – |
| O=C(Nc1cc(-c2ccncc2)c[nH]c1=O)c1ccc(Cl)c(Cl)c1 [CBK115868] | – | 94.1% and 119% | – |
| C=CCNC(=O)[C@@H]1C=CCN1C(=O)c1ccc(OC)cc1 [CBK284317] | 95.4 | 76.8% | – |
| O=C(CN1C(=O)[C@H]2CCCN2C(=O)c2ccccc21)N1CCCCC1 [CBK282435] | 90.6 | 80.4% | – |
| O=C(c1cccc(C(F)(F)F)c1)N1CCCC2(CCN(C(=O)c3ccoc3)C2)C1 (stereo not drawn) [CBK131616] | – | 116% and 88% | – |
| O=C(CC1Nc2ccccc2NC1=O)Nc1ccccc1 (stereo not drawn) [CBK265365] | 99.8 | 103% | – |
| O=C(O)c1ccc(CN(c2ccccc2)S(=O)(=O)c2ccccc2)cc1 [CBK262406] | 93.3 | 82.8% | – |
| C[C@H]1CN2CCCC2CN1Cc1ccc(CN(C)C)cc1 (stereo partly drawn) [CBK285438] | 88.9 | 101% | – |
| COC(=O)c1ccccc1OC[C@@H]1CN(C(=O)C(C)(C)N)C[C@H]1c1cc2ccccc2o1 [CBK022525T] | 106 | 92.2% | – |
| C[C@@H]1CN2CCCC2CN1Cc1ccc(F)cc1F (stereo partly drawn) [CBK285455] | 106 | 97.8% | – |
| O=C(NC1CCCCC1)[C@H]1C=CCN1C(=O)c1ccc(F)cc1 [CBK282324] | 93.9 | 86.4% | – |
| Cn1cc(C(=O)N2CCc3[nH]c4ccccc4c3C2)cn1 [CBK281875] | – | 104% and 83.7% | – |
| O=C(O)CC1C(=O)NC(=O)N1CCc1ccccc1 (stereo not drawn) [CBK287254] | – | 111% and 85.3% | – |
| c1ccc(-c2csc3ncnc(NCc4ccco4)c23)cc1 [CBK017506] | 91.1 | 84.6% | – |
| C=Cn1ncc(CN2C[C@@H]3CCCN3C[C@H]2CCSC)c1C [CBK285440] | 99.4 | 101% | – |

| SMILES | viability at 28.5 h, 10 µM (in vitro [1]) [%] | % viability (HeLa) | further results |
| --- | --- | --- | --- |
| CC(NC(=O)N(Cc1ccccc1C(F)(F)F)CC(C)(C)CN)c1ccccc1 (stereo not drawn) [CBK026834C] | – | 118% and 97.8% | – |
| Cc1cc2c(cc1C)NC(CC(=O)Nc1ccc(Cl)cc1)C(=O)N2 (stereo not drawn) [CBK263245] | 83.4 | 90.5% | – |
| C=CCNC(=O)Cn1c([C@@H]2CCCO2)cc2cccnc21 [CBK282873] | 98.2 | 110% | – |
| CCCNC(=O)NS(=O)(=O)c1ccc(C)cc1 [CBK288527] | 100 | 90.2% | – |
| Cc1ccc(S(=O)(=O)N2CCN(c3ccc(Cl)c(Cl)c3)CC2)c(C)c1 [CBK099298] | 111 | 118% | – |
| COc1cc2[nH]c(=S)n(C3CCCC3)c(=O)c2cc1OC [CBK288518] | 84.9 | 93.5% | – |
| CC[C@H](CO)NC(=O)c1coc(COc2ccc3sc(C)nc3c2)n1 [CBK306602] | 85.3 | 93.5% | – |
| C[C@H](Cn1nc2c(cc1=O)CCCCC2)NC(=O)c1ccc(F)cc1 [CBK284557] | 98.4 | 93.4% | – |
| CCCCn1nc(C)c(-c2cc(C(=O)O)[nH]n2)c1C [CBK287047] | 95 | 84.5% | – |
| O=C(O)CCc1ccc(-c2cccs2)n1-c1cc(Cl)ccc1O [CBK131890] | 104 | 106% | – |
| COc1ccc2[nH]cc(CC(=O)N3CCC(C#N)(c4ccccc4)CC3)c2c1 [CBK091403] | – | 105% | viability at 28.5 h, 10 µM (in vitro [1]; bulk resorufin, single well): 96.6% |
| COc1ccc(Nc2nccc(-c3cccnc3)n2)cc1 [CBK288073] | – | 70.2% and 104% | – |
| C[C@@H]1CN2C[C@H](O)CC2CN1Cc1ccc2c3ccccc3n(C)c2c1 (stereo partly drawn) [CBK284554] | 91.5 | 102% | – |
| O=C(CN1C(=O)[C@@H]2CCCN2C(=O)c2ccccc21)NCc1ccccc1 [CBK286318] | 98.6 | 89.5% | – |
| COc1cc(CNCc2cccnc2)cc(Br)c1OCc1ccc(Cl)cc1 [CBK074596C] | 107 | 95.5% | – |
| O=C(NCCN1CCCC1)c1cc2cc(F)ccc2[nH]1 [CBK107278] | 106 | 105% | – |
| C=CCNC(=O)[C@H]1C=CCN1C(=O)Nc1ccc(F)cc1 [CBK282318] | – | 82.7% and 110% | – |
| Cn1cc(C(NC(=O)c2nc(N)nc3c2CCCC3)[C@H]2C[C@@H](O)C2)cn1 (stereo partly drawn) [CBK307535] | – | 92.2% and 114% | – |
| O=C1CNC(=O)C2(C/C=C/C[C@H]3COCC[C@H]3N1)CCNCC2 [CBK292151] | – | 82.1% and 104% | – |
| COC(=O)Cn1nnc(-c2ccc(C)cc2)n1 [CBK068195] | – | 123% and 93.2% | – |
| CC(C)[C@@H](N)Cn1nc(-c2ccc(F)c(F)c2)ccc1=O [CBK282429] | – | 83% and 112% | – |
| Nc1cc2cccnc2c(-c2cc(F)cc(F)c2)n1 [CBK061908] | – | 80.4% and 85.8% and 103% | – |
| CC(Oc1ccccc1)C(=O)Nc1ccccc1C(=O)O (stereo not drawn) [CBK262854] | – | 109% and 87% | – |
| CCOC(=O)c1cnc2c(Cl)cccc2c1NCCN1CCOCC1 [CBK263919] | – | 88.1% and 109% | – |

| SMILES | viability at 28.5 h, 10 µM (in vitro [1]) [%] | % viability (HeLa) | further results |
| --- | --- | --- | --- |
| O=C(Nc1cccnc1)c1cnc2cc(C(F)(F)F)ccc2c1O [CBK107474T] | – | 88% | – |
| Cc1onc(-c2ccccc2)c1CNC(=O)C1COc2ccccc2O1 (stereo not drawn) [CBK144086] | – | 104% and 80.3% | – |
| O=c1cc(O)c2ccccc2n1Cc1ccccc1 [CBK218877] | – | 107% and 84.4% | – |
| CC[C@@H](Cn1nc(-c2cccs2)ccc1=O)NC(=O)C1CC1 [CBK282309] | – | 80.2% and 102% | – |
| C[C@H]1CN2C[C@H](O)CC2CN1Cc1ccc(-c2ccccc2Cl)o1 (stereo partly drawn) [CBK285418] | – | 109% and 85.9% | – |
| O=C(CSc1nc(O)c(Cc2ccccc2)c(=O)[nH]1)Nc1ccc([N+](=O)[O-])cc1 [CBK265887] | – | 88% and 113% | – |
| c1ccc(CN2CCC(Oc3cncc(OCCN4CCOCC4)n3)C2)cc1 (stereo not drawn) [CBK084478] | – | 107% and 84% | – |
| COc1ccc(-c2nc(SCc3ccccc3)[nH]c(=O)c2C#N)cc1 [CBK007169] | – | 107% and 84.8% | – |
| Cc1ccc2sc(NC(=O)c3ccc(N4C(=O)CCC4=O)cc3)nc2c1C [CBK287587] | – | 84.7% and 106% | – |
| CCOC(=O)CN1CCC(Oc2nccnc2OCCN2C(=O)CCC2=O)CC1 [CBK084348] | – | 120% and 80% | – |
| O=C(CC1SC(NC2CC3C=CC2C3)=NC1=O)Nc1ccccc1Cl (stereo not drawn) [CBK005795] | – | 109% and 72.5% | – |
| CNc1cc(NS(=O)(=O)c2ccc(N)cc2)nc(NC)n1 [CBK011865] | – | 93% | – |
| CN(C(=O)CC1SC(NCC2CCCCC2)=NC1=O)c1ccccc1 (stereo not drawn) [CBK067371] | – | 87.9% and 110% | – |
| O=C1NCCN1CCNS(=O)(=O)c1csc2ccccc12 [CBK062602] | – | 117% and 90% | – |
| CC(C)C(=O)Nc1cc2cccnc2c(-c2cccc(C(F)(F)F)c2)n1 [CBK081266] | – | 125% and 100% | – |
| C[C@H]1CN2C[C@H](O)CC2CN1Cc1ccc(C(F)(F)F)cc1 (stereo partly drawn) [CBK285147] | – | 113% and 89.6% | – |
| O=C(O)CCC(=O)Nc1ccc(Br)cn1 [CBK056920] | – | 89.9% and 110% | – |
| COc1ccc(CN2C(=O)[C@H]3CCCN3C(=O)c3ccccc32)cc1 [CBK282851] | – | 87.8% and 109% | – |
| COc1ccc(C(C)C)cc1-c1cnc2ncccc2c1N [CBK083686] | – | 108% and 81.3% | – |
| CC(=O)c1c(C)nc(-c2ccc(Cl)c(Cl)c2)n1O [CBK288525] | – | 116% and 89.2% | – |
| O=C(Nc1ccc(OC(F)(F)F)cc1)Nc1cc(-c2cccs2)n[nH]1 [CBK020563] | 82.5 | – | viability at 28.5 h, 1 µM (in vitro [2]): 113%; viability at 28.5 h, 5 µM (in vitro [2]): 110%; viability at 28.5 h, 10 µM (in vitro [2]): 117%; activity at 1 µM [3]: 100%; activity at 5 µM [3]: 13.4%; activity at 10 µM [3]: 4.7%; activity at 1 µM [4]: 96.5%; activity at 5 µM [4]: 24%; activity at 10 µM [4]: 10.2% |
| COc1cc2c(cc1OC)CN(C(=O)c1ccc3occc3c1)CC2 [CBK122746] | – | 66.2% and 36.8% | – |
| Cc1csc(SC(C)C(=O)N2CCc3ccccc32)n1 (stereo not drawn) [CBK305909] | 98.8 | – | viability at 28.5 h, 1 µM (in vitro [2]): 94.1%; viability at 28.5 h, 5 µM (in vitro [2]): 91.9%; viability at 28.5 h, 10 µM (in vitro [2]): 89.5%; activity at 1 µM [3]: 143%; activity at 5 µM [3]: 149%; activity at 10 µM [3]: 132%; activity at 1 µM [4]: 112%; activity at 5 µM [4]: 49.8%; activity at 10 µM [4]: 42.5% |
